Experimental data taken from patent US6277861A, “Anti-convulsant isoquinolyl-benzamide derivatives” (SmithKline Beecham, p.l.c., priority 1997, dated 2001).
Counter-ions that a name gives are not always drawn.

What was measured:
[1] = system: maximal electroshock seizure threshold; assay: Maximal electroshock seizure (MEST) threshold test, mouse model; format: in vivo, mice; settings: 10 mg/kg p.o. at 2 h
Experimental: The maximal electroshock seizure (MEST) threshold test in rodents is particularly sensitive for detecting potential anticonvulsant properties^1. In this model, anticonvulsant agents elevate the threshold to electrically-induced seizures whilst proconvulsants lower the seizure threshold.
Mice (naive male, Charles River, U.K. CD-1 strain, 25-30 g) are randomly assigned to groups of 10-20 and dosed orally or intraperitoneally at a dose volume of 10 ml/kg with various doses of compound (0.3-300 mg/kg) or vehicle. […] The mean current and standard error required to induce a tonic seizure in 50% (CC50) of the mice in a particular treatment group is determined by the `up and down` method of Dixon and Mood (1948)^2. Statistical comparisons between vehicle- and drug-treated groups are made using the method of Litchfield and Wilcoxon (1949)^3.
In control animals the CC50 is usually 14-18 mA. […] If a tonic convulsion does occur, then the current is decreased, and so on until all the animals in the group have been tested.
Studies are carried out using a Hugo Sachs Electronik Constant Current Shock Generator with totally variable control of shock level from 0 to 300 mA and steps of 2 mA are usually used.

[2] = target: novel receptor obtainable from rat forebrain tissue ([3H]-Compound A binding site); assay: Radioligand binding assay, displacement of [3H]-Compound A from rat forebrain tissue; settings: competition with [3H]-Compound A, Table
Experimental: WO 92/22293 (SmithKline Beecham) discloses compounds having anti-convulsantactivity, including inter alia the compound trans-(+)-6-acetyl-4S-(4-fluorobenzoylamino)-3,4-dihydro-2,2-dimethyl-2H-1-benzopyran-3R-ol (hereinafter referred to as Compound A). […] The affinity of test compounds to the novel receptor site is assessed as follows. Whole forebrain tissue is obtained from rats. The tissue is first homogenised in buffer (usually 50 mM Tris/HCl, pH 7.4). The homogenised tissue is washed by centrifugation and resuspension in the same buffer, then stored at -70° C. until used. To carry out the radioligand binding assay, aliquots of tissue prepared as above (usually at a concentration of 1-2 mg protein/ml) are mixed with aliquots of [3H]-Compound A dissolved in buffer. The final concentration of [3H]-Compound A in the mixture is usually 20 nM. The mixture is incubated at room temperature for 1 hour. [3H]-Compound A bound to the tissue is then separated from unbound [3H]-Compound A by filtration through Whatman GF/B glass fibre filters. The filters are then washed rapidly with ice-cold buffer. The amount of radioactivity bound to the tissue trapped on the filters is measured by addition of liquid scintillation cocktail to the filters followed by counting in a liquid scintillation counter. In order to determine the amount of "specific" binding of [3H]-Compound A, parallel assays are carried out as above in which [3H]-Compound A and tissue are incubated together in the presence of unlabelled Compound A (usually 3 μM). The amount of binding of [3H]-Compound A remaining in the presence of this unlabelled compound is defined as "non-specific" binding. This amount is subtracted from the total amount of [3H]-Compound A binding (i.e. that present in the absence of unlabelled compound) to obtain the amount of "specific" binding of [3H]-Compound A to the novel site. The affinity of the binding of test compounds to the novel site can be estimated by incubating together [3H]-Compound A and tissue in the presence of a range of concentrations of the compound to be tested. The decrease in the level of specific [3H]-Compound A binding as a result of competition by increasing concentrations of the compound under test is plotted graphically, and non-linear regression analysis of the resultant curve is used to provide an estimate of compound affinity in terms of pKi value.

[3] = system: maximal electroshock seizure threshold; assay: Maximal electroshock seizure (MEST) threshold test, rat model; format: in vivo, rats; settings: percentage increase in CC50 compared to the control, suspended in 1% methyl cellulose
Experimental: The maximal electroshock seizure (MEST) threshold test in rodents is particularly sensitive for detecting potential anticonvulsant properties^1. In this model, anticonvulsant agents elevate the threshold to electrically-induced seizures whilst proconvulsants lower the seizure threshold. The threshold for maximal (tonic hindlimb extension) electroshock seizures in male rats (Sprague Dawley, 80-150 g, 6 weeks old) was determined by a Hugo Sachs Electronik stimulator which delivered a constant current (0.3 sec duration; from 1-300 mA in steps of 5-20 mA). The procedure is similar to that outlined above for mouse and full details are as published by Upton et al,.^4 The percentage increase or decrease in CC50 for each group compared to the control is calculated. Drugs are suspended in 1% methyl cellulose.

SMILES | percentage increases in seizure threshold [1] [%] | pKI Compound A [2] | Rat MEST at 2 mg/kg p.o at 2h (increases) [3]
COc1cc(OC(C)C)c(Cl)cc1C(=O)Nc1cccc2c1CCN(C)C2C (racemic) [Example 4, (±) N-(1,2-Dimethyl-1,2,3,4-tetrahydroisoquinolin-5-yl)-5-chloro-4-iso-propoxy-2-methoxybenzamide, hydrochloride] | 47 | – | –
COc1cc(C(C)(C)C)ccc1C(=O)Nc1cccc2c1CCN(C)C2C (racemic) [Example 5, (±) N-(1,2-Dimethyl-1,2,3,4-tetrahydroisoquinolin-5-yl)-tert-butyl-2-methoxybenzamide, hydrochloride] | 46 | – | –
COc1cc(C)c(C(F)(F)F)cc1C(=O)Nc1cccc2c1CCN(C)C2C (racemic) [Example 6, (±) N-(1,2-Dimethyl-1,2,3,4-tetrahydroisoquinolin-5-yl)-5-trifluoromethyl-2-methoxy-4-methyl benzamide, hydrochloride] | 36 | – | –
COc1ccc(C(=O)Nc2ccc3c(c2)CN(C)CC3(C)C)cc1C(F)(F)F.Cl [Example 7, N-(2,4,4-Trimethyl-4H-isoquinolin-7-yl)-4-methoxy-3-trifluoromethylbenzamide, hydrochloride] | – | 8.5 | 510
CC(C)c1ccc(C(=O)Nc2ccc3c(c2)CN(C)CC3(C)C)cc1C#N [Example 8, N-(2,4,4-Trimethyl-4H-isoquinolin-7-yl)-3-cyano-4-iso-propylbenzamide] | – | 8.0 | 120
CCc1ccc(C(=O)Nc2ccc3c(c2)CN(C)CC3(C)C)cc1Br [Example 9, N-(2,4,4,-Trimethyl-4H-isoquinolin-7-yl)-3-bromo-4-ethylbenzamide] | – | 8.3 | 53
CCOc1ccc(C(=O)Nc2ccc3c(c2)CN(C)CC3(C)C)cc1Br [Example 10, N-(2,4,4-Trimethyl-4H-isoquinolin-7-yl)-3-bromo-4-ethoxybenzamide] | – | 8.2 | 294
CC(C)Oc1ccc(C(=O)Nc2ccc3c(c2)CN(C)CC3(C)C)cc1Cl [Example 11, N-(2,4,4-Trimethyl-4H-isoquinolin-7-yl)-3-chloro--4-iso-propoxybenzamide] | – | 7.9 | 204
